From patent publication US5780441A, “Sphingoglycolipid compounds and therapeutic uses thereof” (Kirin Beer Kabushiki Kaisha, priority 1993, dated 1998)

Legend:
mouse splenic lymphocyte = assay: In vitro mouse splenic lymphocyte-proliferation-stimulating effect (3H-TdR uptake); assay type: cell-based, mouse (BDF1 female); conditions: 2 days; for Uptake of 3H-TdR (% of control), splenic lymphocytes: 2880 min
In short: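 Spleen cells from 6-week-old female BDF1 mice, 2×10^6 cells/ml in 10% FCS RPMI 1640, cultured with vehicle or sample 2 days at 37° C, 5% CO2. ^3H-TdR (0.5 μCi/well) uptake over 6 h by scintillation counting, expressed as % of vehicle.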

[1] = tested on: mixed lymphocyte culture reaction (spleen cells of C57BL/6 and BALB/C mice); assay: Mixed lymphocyte culture reaction (MLR); assay type: cell-based, mouse (C57BL/6 stimulator, BALB/C responder); conditions: 42 hours; for MLR activating rate (%): 2520 min
In short: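 Mouse one-way MLR: mitomycin C-treated (50 μg/ml, 30 min) C57BL/6 spleen cells stimulated BALB/C responder spleen cells, 2×10^6 cells/ml each, cultured 42 h at 37 °C with sample. ³H-thymidine (0.5 μCi/well) incorporation over a further 8 h gave MLR activating rate as % of vehicle uptake.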

[2] = Solubility in water in aqueous Polysorbate 20 solutions; assay type: physicochemical; conditions: vs Compound b
Method: Compounds a and b comprising a monosaccharide as a constituent sugar which are disclosed in WO 93/05055 were synthesized as above. A 1 mg of each of the present compounds 4, 31 and 33 and Compound a and b was dissolved in 1 ml of an aqueous Polysorbate 20 solution in a variety of concentrations in order to observe visually the property.

[3] = tested on: P388 mouse leukemia cells; assay: Life-span-prolonging (anti-tumor) effect on mice subcutaneously inoculated with P388 mouse leukemia cells; assay type: in vivo, mouse (CDF1 female); conditions: for Survival days ave. ± s. d.: all marked ** (p < 0.01)
In short: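 CDF1 female mice (6 weeks), 5 per group, inoculated subcutaneously with P388 leukemia cells; life-span prolongation assessed. Lentinan and picibanil given intravenously on days 1, 3, 5, 7 and 9 after implantation; sizofilan given subcutaneously on days 1 through 9. Statistics by Mann-Whitney test.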

mouse bone marrow cells = assay: In vitro mouse bone marrow cell-proliferation-promoting effect (3H-TdR uptake); assay type: cell-based, mouse (BDF1 female); conditions: 4 days; for Uptake of 3H-TdR (% of control), bone marrow cells: 5760 min
In short: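 Femoral bone marrow monocytes from 6-week female BDF1 mice (Lympholite M fraction, 1×10^6 cells/ml in 10% FCS RPMI 1640) cultured with sample for 4 days at 37 °C, 5% CO2. 3H-TdR (0.5 μCi/well) added for final 6 h; uptake ratio versus vehicle reported as activation rate.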

B16 mouse melanoma cells = assay: Tumor growth inhibition in mice subcutaneously inoculated with B16 mouse melanoma cells; assay type: in vivo, mouse (BDF1 female); conditions: 0.1 mg/kg i.v. days 1, 5, 9; maximum during 20 days
Method: ii) Anti-tumor effect of the compound according to the present invention on mice subcutaneously inoculated with B16 mouse melanoma cells.
Experiment was performed with BDF1 female mice (6 weeks) purchased from NIPPON SLC K.K., which were divided into groups consisting of 6 animals. […]. The subcutaneous tumor volumes [(length×width×height)/2] were measured on days 8, 12, 16 and 20 after implantation to determine the tumor growth inhibiting rate (TGIR) of each sample. TGIR was calculated from the following formula: […]
wherein C: tumor volume in the control group, and
T: tumor volume in the sample adminitered groups.
In this connection, Compounds 1-6 and 7-9 were tested in the same time, respectively.

lethally irradiated mice = assay: Radioprotective effect: life-span prolongation of lethally irradiated mice; assay type: in vivo, mouse (BDF1 female); conditions: 0.1 mg/kg i.v. days 0, 4, 8, 9 Gy X-ray, groups of 10
Method: Life-span-prolonging effects of the present compounds on lethally irradiated mice.
Experiment was performed with BDF1 female mice (6 weeks old) purchased from NIPPON SLC K.K., which were divided into groups consisting of 10 animals. Mice were irradiated generally with 9 Gy of X-ray with an X-ray generating apparatus, Hitachi, MBR-1520R (radiation day: day 0). Samples at a dose of 0.1 mg/kg were administered into tail vein on days 0, 4 and 8 in order to observe the mortality of the animals for 40 days.
In the table, two experiments are separated by the broken line.

[4] = 0.1 mg/kg i.v. on days 1, 5 and 9
[5] = 0.1 mg/kg i.v. on days 1, 5 and 9, survival vs vehicle

Work on `CCCCCCCCCCCCCCCCCCCCCCCCCC(=O)N[C@@H](CO[C@H]1O[C@H](CO[C@H]2O[C@H](CO)[C@H](O)[C@H](O)[C@H]2O)[C@@H](O)[C@H](O)[C@H]1O)[C@H](O)[C@H](O)CCCCCCCCCCCCCC` [Compound 31, O-α-D-galactopyranosyl-(1→6)-O-α-D-glucopyranosyl-(1→1)-(2S,3S,4R)-2-amino-N-hexacosanoyl-1,3,4-octadecanetriol] yielded an activity at 1 µg/mL (mouse splenic lymphocyte; Mus musculus, Splenic lymphocyte, 48 h, 10^0 μg/ml, read-out: Uptake of 3H-TdR (% of control), splenic lymphocytes) of 615%, an activity at 0.001 µg/mL (mouse splenic lymphocyte; Mus musculus, Splenic lymphocyte, 48 h, 10^-3 μg/ml, read-out: Uptake of 3H-TdR (% of control), splenic lymphocytes) of 744% and an activity at 1 µg/mL ([1]; Mus musculus, Lymphocyte, 1 × 10^0 μg/ml, read-out: MLR activating rate (%)) of 206%. The activity at 0.1 µg/mL ([1]; Mus musculus, Lymphocyte, 1 × 10^-1 μg/ml, read-out: MLR activating rate (%)) was 196%, the “amount of Polysorbate 20 required for dissolving, relative to that required for Compound b” value [2] was 1/100 and the “Survival days ave. ± s. d.” value [3, 4] was 14.6 ± 0.5 days. The response vs control in vivo at 0.1 mg/kg ([3]; Mus musculus, P388, iv, 0.1 mg/kg i.v. on days 1, 5 and 9, survival vs vehicle, read-out: T/C (%)) was 114%, the “life-span-prolonging effect (anti-tumor effect), in words” value ([3]; P388 s.c. system) was “intensive anti-tumor effects almost in the same level as that of Compound b” and the activity at 0.1 µg/mL (mouse bone marrow cells; Mus musculus, Bone marrow cell, 96 h, 10^-1 μg/ml, read-out: Uptake of 3H-TdR (% of control), bone marrow cells) was 296%. For the same molecule, the activity at 0.01 µg/mL (mouse bone marrow cells; Mus musculus, Bone marrow cell, 96 h, 10^-2 μg/ml, read-out: Uptake of 3H-TdR (% of control), bone marrow cells) was 594%.
In the case of `CCCCCCCCCCCCCCCCCCCCCC[C@@H](O)C(=O)N[C@@H](CO[C@H]1O[C@H](CO)[C@H](O)[C@H](O[C@H]2O[C@H](CO)[C@H](O)[C@H](O)[C@H]2NC(C)=O)[C@H]1O[C@H]1O[C@H](CO)[C@@H](O)[C@H](O)[C@H]1O)[C@H](O)[C@H](O)CCCCCCCCCCCC(C)C` [Compound 3, O-(N-acetyl-2-amino-2-deoxy-α-D-galactopyranosyl)-(1→3)-O-[α-D-glucopyranosyl-(1→2)]-O-α-D-galactopyranosyl-(1→1)-(2S,3S,4R)-2-amino-N-[(R)-2-hydroxytetracosanoyl]-16-methyl-1,3,4-heptadecanetriol], the “Uptake of 3H-TdR (% of control), splenic lymphocytes” value (mouse splenic lymphocyte; 10^0 μg/ml) is reported as 815 % of control, the “Uptake of 3H-TdR (% of control), splenic lymphocytes” value (mouse splenic lymphocyte; 10^-1 μg/ml) is reported as 704 % of control and the “Uptake of 3H-TdR (% of control), splenic lymphocytes” value (mouse splenic lymphocyte; 10^-2 μg/ml) is reported as 397 % of control. The “Uptake of 3H-TdR (% of control), splenic lymphocytes” value (mouse splenic lymphocyte; 10^-3 μg/ml) was 258 % of control, the “Maximum tumor growth inhibiting rate, TGIR (%)” value (B16 mouse melanoma cells) was 66.8% and the “MLR activating rate (%)” value ([1]; 1 × 10^0 μg/ml) was 210%. The “MLR activating rate (%)” value ([1]; 1 × 10^-1 μg/ml) was 138%, the “Survival days ave. ± s. d.” value [3, 4] was 15.0 ± 0 days and the “T/C (%)” value [3, 5] was 117%. For the same molecule, the “Uptake of 3H-TdR (% of control), bone marrow cells” value (mouse bone marrow cells; 10^-1 μg/ml) was 314 % of control, the “Uptake of 3H-TdR (% of control), bone marrow cells” value (mouse bone marrow cells; 10^-2 μg/ml) was 138 % of control and the “Number of surviving mice” value (lethally irradiated mice; day 10) was 10 mice. For the same molecule, the “Number of surviving mice” value (lethally irradiated mice; day 15, 0.1 mg/kg) was 6 mice, the “Number of surviving mice” value (lethally irradiated mice; day 20, 0.1 mg/kg) was 5 mice and the “Number of surviving mice” value (lethally irradiated mice; day 25, 0.1 mg/kg) was 5 mice. The “Number of surviving mice” value (lethally irradiated mice; day 30, 0.1 mg/kg) was 5 mice, the “Number of surviving mice” value (lethally irradiated mice; day 35, 0.1 mg/kg) was 5 mice and the “Number of surviving mice” value (lethally irradiated mice; day 40, 0.1 mg/kg) was 5 mice.
For `CCCCCCCCCCCCCCCCCCCCCC[C@@H](O)C(=O)N[C@@H](CO[C@H]1O[C@H](CO)[C@H](O)[C@H](O[C@H]2O[C@H](CO)[C@H](O)[C@H](O)[C@H]2NC(C)=O)[C@H]1O[C@H]1O[C@H](CO)[C@@H](O)[C@H](O)[C@H]1O)[C@H](O)[C@H](O)CCCCCCCCCCCCCC` [Compound 6, O-(N-acetyl-2-amino-2-deoxy-α-D-galactopyranosyl)-(1→3)-O-[α-D-glucopyranosyl-(1→2)]-O-α-D-galactopyranosyl-(1→1)-(2S,3S,4R)-2-amino-N-[(R)-2-hydroxytetracosanoyl]-1,3,4-octadecanetriol], the “Uptake of 3H-TdR (% of control), splenic lymphocytes” value (mouse splenic lymphocyte; 10^0 μg/ml) was 883 % of control, the “Uptake of 3H-TdR (% of control), splenic lymphocytes” value (mouse splenic lymphocyte; 10^-1 μg/ml) was 979 % of control and the “Uptake of 3H-TdR (% of control), splenic lymphocytes” value (mouse splenic lymphocyte; 10^-2 μg/ml) was 649 % of control. The “Uptake of 3H-TdR (% of control), splenic lymphocytes” value (mouse splenic lymphocyte; 10^-3 μg/ml) was 543 % of control, the “Maximum tumor growth inhibiting rate, TGIR (%)” value (B16 mouse melanoma cells) was 91.2% and the “MLR activating rate (%)” value ([1]; 1 × 10^0 μg/ml) was 228%. For the same molecule, the “MLR activating rate (%)” value ([1]; 1 × 10^-1 μg/ml) was 194%, the “Survival days ave. ± s. d.” value [3, 4] was 15.8 ± 1.1 days and the “T/C (%)” value [3, 5] was 123%. For the same molecule, the “Uptake of 3H-TdR (% of control), bone marrow cells” value (mouse bone marrow cells; 10^-1 μg/ml) was 431 % of control, the “Uptake of 3H-TdR (% of control), bone marrow cells” value (mouse bone marrow cells; 10^-2 μg/ml) was 142 % of control and the “Number of surviving mice” value (lethally irradiated mice; day 10, 0.1 mg/kg) was 10 mice. For the same molecule, the “Number of surviving mice” value (lethally irradiated mice; day 15, 0.1 mg/kg) was 10 mice, the “Number of surviving mice” value (lethally irradiated mice; day 20, 0.1 mg/kg) was 8 mice and the “Number of surviving mice” value (lethally irradiated mice; day 25, 0.1 mg/kg) was 8 mice. The “Number of surviving mice” value (lethally irradiated mice; day 30, 0.1 mg/kg) was 8 mice, the “Number of surviving mice” value (lethally irradiated mice; day 35, 0.1 mg/kg) was 8 mice and the “Number of surviving mice” value (lethally irradiated mice; day 40, 0.1 mg/kg) was 8 mice.
With `CCCCCCCCCCCCCCCCCCCCCC[C@@H](O)C(=O)N[C@@H](CO[C@H]1O[C@H](CO)[C@H](O)[C@H](O[C@H]2O[C@H](CO)[C@H](O)[C@H](O)[C@H]2NC(C)=O)[C@H]1O[C@H]1O[C@H](CO)[C@@H](O)[C@H](O)[C@H]1O)[C@H](O)[C@H](O)CCCCCCCCCCCC(C)C` [Compound 7, O-(N-acetyl-2-amino-2-deoxy-α-D-galactopyranosyl)-(1→3)-O-[α-D-glucopyranosyl-(1→2)]-O-α-D-galactopyranosyl-(1→1)-(2S,3S,4R)-2-amino-N-[(R)-2-hydroxytetracosanoyl]-16-methyl-1,3,4-heptadecanetriol] the “Uptake of 3H-TdR (% of control), splenic lymphocytes” value (mouse splenic lymphocyte; 10^0 μg/ml) was 927 % of control, the “Uptake of 3H-TdR (% of control), splenic lymphocytes” value (mouse splenic lymphocyte; 10^-2 μg/ml) was 705 % of control and the “Uptake of 3H-TdR (% of control), splenic lymphocytes” value (mouse splenic lymphocyte; 10^-3 μg/ml) was 593 % of control. The “Maximum tumor growth inhibiting rate, TGIR (%)” value (B16 mouse melanoma cells) was 78.1%, the “MLR activating rate (%)” value ([1]; 1 × 10^0 μg/ml) was 234% and the “MLR activating rate (%)” value ([1]; 1 × 10^-1 μg/ml) was 195%. The “Survival days ave. ± s. d.” value [3, 4] was 15.8 ± 0.9 days, the “T/C (%)” value [3, 5] was 123% and the “Uptake of 3H-TdR (% of control), bone marrow cells” value (mouse bone marrow cells; 10^-1 μg/ml) was 451 % of control. The “Uptake of 3H-TdR (% of control), bone marrow cells” value (mouse bone marrow cells; 10^-2 μg/ml) was 478 % of control, the “Number of surviving mice” value (lethally irradiated mice; day 10) was 10 mice and the “Number of surviving mice” value (lethally irradiated mice; day 15, 0.1 mg/kg) was 8 mice. For the same molecule, the “Number of surviving mice” value (lethally irradiated mice; day 20, 0.1 mg/kg) was 6 mice, the “Number of surviving mice” value (lethally irradiated mice; day 25, 0.1 mg/kg) was 3 mice and the “Number of surviving mice” value (lethally irradiated mice; day 30, 0.1 mg/kg) was 3 mice. For the same molecule, the “Number of surviving mice” value (lethally irradiated mice; day 35, 0.1 mg/kg) was 3 mice and the “Number of surviving mice” value (lethally irradiated mice; day 40, 0.1 mg/kg) was 3 mice.
